Assay results taken from ChEMBL document CHEMBL1147927, “Piperazinyl CCR1 antagonists--optimization of human liver microsome stability” (Bioorg Med Chem Lett, 2007).
pIC50: −log10 of the molar value.

Experiments:
[1] = Metabolic stability in rat liver microsomes; type: ADME, Microsome
[2] = Metabolic stability in human liver microsomes; type: ADME, Microsome
[3] = molecular target: T1, C-C chemokine receptor type 1 (Homo sapiens, UniProt P32246); test: Binding Affinity at CCL3
T1 sequence (P32246 whole entry): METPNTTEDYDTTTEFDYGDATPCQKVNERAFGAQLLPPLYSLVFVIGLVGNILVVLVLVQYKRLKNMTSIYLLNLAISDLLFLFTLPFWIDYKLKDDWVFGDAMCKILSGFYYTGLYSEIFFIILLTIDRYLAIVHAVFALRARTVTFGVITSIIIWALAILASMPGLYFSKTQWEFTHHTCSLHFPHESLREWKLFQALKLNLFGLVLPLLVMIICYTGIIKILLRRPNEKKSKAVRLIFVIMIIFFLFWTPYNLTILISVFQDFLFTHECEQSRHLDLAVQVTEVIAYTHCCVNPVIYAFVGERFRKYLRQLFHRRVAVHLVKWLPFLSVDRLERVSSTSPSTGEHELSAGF

[4] = Metabolic stability in monkey liver microsomes; type: ADME, Macaca fascicularis, Microsome; details: cynomolgus monkey
[5] = Metabolic stability in dog liver microsomes; type: ADME, Canis lupus familiaris, Microsome
[6] = Activity at CCL3 by chemotaxis assay; type: functional
[7] = Plasma clearance in iv dosed dog; type: ADME, organism-based, Canis lupus familiaris
[8] = Half life in rat; type: ADME, organism-based; details: in vivo
[9] = Plasma clearance in iv dosed rat; type: ADME, organism-based
[10] = Volume of distribution at steady state in dog; type: ADME, organism-based, Canis lupus familiaris; details: in vivo, read-out: Vdss
[11] = Volume of distribution at steady state in rat; type: ADME, organism-based; details: in vivo, read-out: Vdss
[12] = Half life in dog; type: ADME, organism-based, Canis lupus familiaris; details: in vivo
[13] = Plasma clearance in monkey; type: ADME, organism-based, Macaca fascicularis; details: cynomolgus monkey
[14] = Half life in monkey; type: ADME, organism-based, Macaca fascicularis; details: cynomolgus monkey, in vivo
[15] = Bioavailability in rat; type: ADME, organism-based; details: in vivo
[16] = Volume of distribution at steady state in monkey; type: ADME, organism-based, Macaca fascicularis; details: cynomolgus monkey, in vivo; read-out: Vdss
[17] = Bioavailability in monkey; type: ADME, organism-based, Macaca fascicularis; details: cynomolgus monkey, in vivo
[18] = Bioavailability in dog; type: ADME, organism-based, Canis lupus familiaris; details: in vivo

| SMILES | CLhep predicted [1] [mL/min/kg] | CLhep predicted [2] [mL/min/kg] | pIC50 [3] | CLhep predicted [4] [mL/min/kg] | CLhep predicted [5] [mL/min/kg] | pIC50 [6] | clearance [7] [mL/min/kg] | half-life [8] [h] | clearance [9] [mL/min/kg] | Vd [10] [L/kg] | Vd [11] [L/kg] | half-life [12] [h] | clearance [13] [mL/min/kg] | half-life [14] [h] | bioavailability [15] [%] | Vd [16] [L/kg] | bioavailability [17] [%] | bioavailability [18] [%] |
| --- | --- | --- | --- | --- | --- | --- | --- | --- | --- | --- | --- | --- | --- | --- | --- | --- | --- | --- |
| C[C@@H]1CN(Cc2ccc(F)cc2)[C@@H](C)CN1C(=O)COc1ccc(Cl)cc1NC(=O)NCCN | 24 | 4.9 | 8.10 | 18 | 11 | 9.00 |  |  |  |  |  |  |  |  |  |  |  |  |
| C[C@@H]1CN(Cc2ccc(F)cc2)[C@@H](C)CN1C(=O)COc1ccc(Cl)cc1CC(=O)O | 25 | 4.7 | 7.42 | 18 | 11 | 8.70 | 0.4 | 3.7 | 5.2 | 0.3 | 3.2 | 11 |  |  |  |  |  |  |
| C[C@@H]1CN(Cc2ccc(F)cc2)[C@@H](C)CN1C(=O)COc1ccc(Cl)cc1C(=O)NCCN | 22 | 5.9 | 7.52 | 36 | 25 | 8.52 |  | 1 | 184 |  | 7.7 |  |  |  |  |  |  |  |
| C[C@@H]1CN(Cc2ccc(F)cc2)CCN1C(=O)COc1ccc(Cl)cc1NC(N)=O [BX 471 FREE BASE] | 62 | 16 |  | 42 | 28 | 8.40 | 1.7 | 0.7 | 33 | 0.6 | 1.7 | 4 | 8.9 | 0.8 | 2 | 0.6 |  |  |
| C[C@@H]1CN(Cc2ccc(F)cc2)[C@@H](C)CN1C(=O)COc1ccc(Cl)cc1CS(=O)(=O)O | 21 | 4.7 | 7.64 | 18 | 11 | 8.52 | 0.2 | 4.6 | 17 | 0.4 | 2.6 | 21 | 51 | 1.1 | 40 | 2.1 | 19 | 100 |
| C[C@@H]1CN(Cc2ccc(F)cc2)[C@@H](C)CN1C(=O)COc1ccc(Cl)cc1C(=O)CCC(=O)O | 31 | 4.7 | 7.89 | 18 | 11 | > 9.30 | 9.7 | 2.3 | 42 | 4.2 | 4 | 5.8 |  |  | 9 |  |  | 100 |
| C[C@@H]1CN(Cc2ccc(F)cc2)[C@@H](C)CN1C(=O)COc1ccc(Cl)cc1C(=O)O | 20 | 4.7 | 7.23 | 31 | 11 | 7.17 | 0.2 | 14 | 2.4 | 0.2 | 2.4 | 11 | 3.4 | 5.9 |  | 0.9 |  |  |
| C[C@@H]1CN(Cc2ccc(F)cc2)CCN1C(=O)COc1ccc(Cl)cc1 | 63 | 14 | 6.07 | 40 | 27 | 7.07 |  |  |  |  |  |  |  |  |  |  |  |  |
